Data published in US20260306527A1, “PRMT INHIBITOR COMPOUNDS AND THE USES THEREOF” (Purdue Research Foundation, priority 2023, published 2026).
“Also recorded” adds a separate entry of the source.

Target: PRMT3 (Homo sapiens, UniProt O60678)
Test: SAHH-coupled fluorescence assay, inhibition of PRMT3
Assay type: biochemical
Set-up: PRMT3 (residues 211-531) was cloned into the pET28a-MHL expression vector; tag of the pET28a-MHL vector (not described); made in house; host or cells: Escherichia coli BL21(DE3)
Procedure: (§1) A fluorescence-based SAHH-coupled assay was applied to study the inhibition activity of all synthesized compounds on PRMT 1 and 3.
(§2) The PRMT3 methylation assay was performed under the following conditions in a final well volume of 100 μL: 20 mM Tris (pH=7.5), 0.01% Triton X-100, 5 μM SAHH, 0.25 μM PRMT3, 30 μM AdoMet, and 15 μM ThioGlo4. […] Fluorescence was monitored on a BMG CLARIOstar microplate reader with excitation 380 nm and emission 505 nm. Data were processed by using GraphPad Prism software 8.0. All experiments were performed in duplicate.
(§3) Next, the inhibition activity of the library was investigated for five PRMT members from type I PRMTs.
as §2, with “8.0.” for “8.0. All experiments were performed in duplicate.”

Chain of PRMT3 (O60678 211-531): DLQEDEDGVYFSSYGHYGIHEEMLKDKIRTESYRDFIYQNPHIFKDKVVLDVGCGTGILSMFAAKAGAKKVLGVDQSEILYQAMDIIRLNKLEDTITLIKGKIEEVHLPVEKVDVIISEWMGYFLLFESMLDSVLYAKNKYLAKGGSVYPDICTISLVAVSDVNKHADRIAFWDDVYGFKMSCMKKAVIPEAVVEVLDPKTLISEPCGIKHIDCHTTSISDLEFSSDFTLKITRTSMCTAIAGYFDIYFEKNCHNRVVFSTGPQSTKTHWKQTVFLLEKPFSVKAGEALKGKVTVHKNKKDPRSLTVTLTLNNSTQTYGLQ

| SMILES | inhibition at 10 µM [%] |
| --- | --- |
| Nc1cccc(-c2ccc(CNC(=O)NCCSC[C@H]3O[C@@H](n4cnc5c(N)ncnc54)[C@H](O)[C@@H]3O)cc2)c1 [Compound 8b] | 5 |
| Nc1ncnc2c1ncn2[C@@H]1O[C@H](CSCCNC(=O)NCc2ccc(-c3ccc(O)cc3)cc2)[C@@H](O)[C@H]1O [Compound 8c] | 10 |
| Nc1ncnc2c1ncn2[C@@H]1O[C@H](CSCCNC(=O)NCc2ccc(-c3cccc(O)c3)cc2)[C@@H](O)[C@H]1O [Compound 8d] | 9 |
| Nc1ncnc2c1ncn2[C@@H]1O[C@H](CSCCNC(=O)NCc2ccc(-c3ccccc3O)cc2)[C@@H](O)[C@H]1O [Compound 8e] | 13 |
| Nc1ncnc2c1ncn2[C@@H]1O[C@H](CSCCNC(=O)NCc2ccc(-c3cc[nH]n3)cc2)[C@@H](O)[C@H]1O [Compound 8f] | 9 |
| Nc1ncnc2c1ncn2[C@@H]1O[C@H](CSCCNC(=O)NCc2ccc(-c3cn[nH]c3)cc2)[C@@H](O)[C@H]1O [Compound 8g] | 10 |
| Nc1ncnc2c1ncn2[C@@H]1O[C@H](CSCCNCc2cccc(-c3ccc(Cl)cc3)c2)[C@@H](O)[C@H]1O [Compound 10a] | 16 |
| Nc1ncnc2c1ncn2[C@@H]1O[C@H](CSCCNCc2cccc(-c3ccc(O)cc3)c2)[C@@H](O)[C@H]1O [Compound 10b] | 1 |
| Nc1ncnc2c1ncn2[C@@H]1O[C@H](CSCCNCc2cccc(-c3cccc(F)c3)c2)[C@@H](O)[C@H]1O [Compound 10c] | 12 |
| Nc1ncnc2c1ncn2[C@@H]1O[C@H](CSCCNCc2cccc(-c3ccc(C(F)(F)F)cc3)c2)[C@@H](O)[C@H]1O [Compound 10e] | 15 |
| Nc1ncnc2c1ncn2[C@@H]1O[C@H](CSCCNCc2cccc(-c3ccc(F)c(O)c3)c2)[C@@H](O)[C@H]1O [Compound 10f] | 20 |

Target: T1, PRMT4 (Homo sapiens, UniProt Q86X55)
T1 sequence (Q86X55 1-608): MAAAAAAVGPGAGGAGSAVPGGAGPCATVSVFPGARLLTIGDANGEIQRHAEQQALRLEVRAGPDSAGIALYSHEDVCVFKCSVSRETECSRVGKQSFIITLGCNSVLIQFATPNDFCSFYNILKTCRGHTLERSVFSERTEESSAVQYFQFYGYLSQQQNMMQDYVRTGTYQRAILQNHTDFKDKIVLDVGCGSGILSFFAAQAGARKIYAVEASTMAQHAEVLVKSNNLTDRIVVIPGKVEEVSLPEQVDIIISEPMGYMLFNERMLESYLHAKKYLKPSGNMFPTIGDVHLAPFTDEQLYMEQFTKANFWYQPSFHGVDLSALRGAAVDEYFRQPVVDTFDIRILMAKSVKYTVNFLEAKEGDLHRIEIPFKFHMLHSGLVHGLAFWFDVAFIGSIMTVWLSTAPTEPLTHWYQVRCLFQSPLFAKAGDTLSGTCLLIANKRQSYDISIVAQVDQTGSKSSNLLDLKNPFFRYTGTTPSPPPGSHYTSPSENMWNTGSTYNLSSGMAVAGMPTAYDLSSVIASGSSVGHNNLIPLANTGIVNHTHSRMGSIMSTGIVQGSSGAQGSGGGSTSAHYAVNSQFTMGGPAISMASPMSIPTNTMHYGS
Test: radioactive assay (Reaction Biology Corp.), inhibition of PRMT4
Assay type: biochemical
Procedure: as §3
(§4) The PRMT 4, 6 and 8 methylation assays were performed by Reaction Biology corp.

| SMILES | inhibition at 10 µM [%] | PRMT4 inhibition |
| --- | --- | --- |
| Nc1cccc(-c2ccc(CNC(=O)NCCSC[C@H]3O[C@@H](n4cnc5c(N)ncnc54)[C@H](O)[C@@H]3O)cc2)c1 [Compound 8b] | 43 | – |
| Nc1ncnc2c1ncn2[C@@H]1O[C@H](CSCCNC(=O)NCc2ccc(-c3ccc(O)cc3)cc2)[C@@H](O)[C@H]1O [Compound 8c] | 42 | – |
| Nc1ncnc2c1ncn2[C@@H]1O[C@H](CSCCNC(=O)NCc2ccc(-c3cccc(O)c3)cc2)[C@@H](O)[C@H]1O [Compound 8d] | 37 | – |
| Nc1ncnc2c1ncn2[C@@H]1O[C@H](CSCCNC(=O)NCc2ccc(-c3ccccc3O)cc2)[C@@H](O)[C@H]1O [Compound 8e] | 53 | – |
| Nc1ncnc2c1ncn2[C@@H]1O[C@H](CSCCNC(=O)NCc2ccc(-c3cc[nH]n3)cc2)[C@@H](O)[C@H]1O [Compound 8f] | 17 | – |
| Nc1ncnc2c1ncn2[C@@H]1O[C@H](CSCCNC(=O)NCc2ccc(-c3cn[nH]c3)cc2)[C@@H](O)[C@H]1O [Compound 8g] | 19 | – |
| Nc1ncnc2c1ncn2[C@@H]1O[C@H](CSCCNCc2cccc(-c3ccc(Cl)cc3)c2)[C@@H](O)[C@H]1O [Compound 10a] | 99 | equal potency on PRMT4; also recorded: more potent PRMT4 inhibition activity than SGC8158 |
| Nc1ncnc2c1ncn2[C@@H]1O[C@H](CSCCNCc2cccc(-c3ccc(O)cc3)c2)[C@@H](O)[C@H]1O [Compound 10b] | 100 | – |
| Nc1ncnc2c1ncn2[C@@H]1O[C@H](CSCCNCc2cccc(-c3cccc(F)c3)c2)[C@@H](O)[C@H]1O [Compound 10c] | 100 | – |
| Nc1ncnc2c1ncn2[C@@H]1O[C@H](CSCCNCc2cccc(-c3ccc(C(F)(F)F)cc3)c2)[C@@H](O)[C@H]1O [Compound 10e] | 99 | – |
| Nc1ncnc2c1ncn2[C@@H]1O[C@H](CSCCNCc2cccc(-c3ccc(F)c(O)c3)c2)[C@@H](O)[C@H]1O [Compound 10f] | 99 | – |

Target: PRMT6 (Homo sapiens, UniProt Q96LA8)
Sequence (Q96LA8 whole entry, species assumed): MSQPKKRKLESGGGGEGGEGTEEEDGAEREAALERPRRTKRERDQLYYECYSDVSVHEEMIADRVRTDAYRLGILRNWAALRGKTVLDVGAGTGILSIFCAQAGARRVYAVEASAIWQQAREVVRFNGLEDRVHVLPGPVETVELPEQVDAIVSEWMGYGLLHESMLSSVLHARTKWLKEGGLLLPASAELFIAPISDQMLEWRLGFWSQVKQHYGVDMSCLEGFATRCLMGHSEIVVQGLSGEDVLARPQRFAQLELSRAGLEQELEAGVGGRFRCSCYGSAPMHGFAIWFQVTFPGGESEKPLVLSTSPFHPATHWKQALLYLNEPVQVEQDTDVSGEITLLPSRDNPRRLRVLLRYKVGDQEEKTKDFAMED
Test: radioactive assay (Reaction Biology Corp.), inhibition of PRMT6
Assay type: biochemical
Procedure: as §3, §4

| SMILES | inhibition at 10 µM [%] |
| --- | --- |
| Nc1cccc(-c2ccc(CNC(=O)NCCSC[C@H]3O[C@@H](n4cnc5c(N)ncnc54)[C@H](O)[C@@H]3O)cc2)c1 [Compound 8b] | 79 |
| Nc1ncnc2c1ncn2[C@@H]1O[C@H](CSCCNC(=O)NCc2ccc(-c3ccc(O)cc3)cc2)[C@@H](O)[C@H]1O [Compound 8c] | 82 |
| Nc1ncnc2c1ncn2[C@@H]1O[C@H](CSCCNC(=O)NCc2ccc(-c3cccc(O)c3)cc2)[C@@H](O)[C@H]1O [Compound 8d] | 88 |
| Nc1ncnc2c1ncn2[C@@H]1O[C@H](CSCCNC(=O)NCc2ccc(-c3ccccc3O)cc2)[C@@H](O)[C@H]1O [Compound 8e] | -2 |
| Nc1ncnc2c1ncn2[C@@H]1O[C@H](CSCCNC(=O)NCc2ccc(-c3cc[nH]n3)cc2)[C@@H](O)[C@H]1O [Compound 8f] | -6 |
| Nc1ncnc2c1ncn2[C@@H]1O[C@H](CSCCNC(=O)NCc2ccc(-c3cn[nH]c3)cc2)[C@@H](O)[C@H]1O [Compound 8g] | 5 |
| Nc1ncnc2c1ncn2[C@@H]1O[C@H](CSCCNCc2cccc(-c3ccc(Cl)cc3)c2)[C@@H](O)[C@H]1O [Compound 10a] | 57 |
| Nc1ncnc2c1ncn2[C@@H]1O[C@H](CSCCNCc2cccc(-c3ccc(O)cc3)c2)[C@@H](O)[C@H]1O [Compound 10b] | 55 |
| Nc1ncnc2c1ncn2[C@@H]1O[C@H](CSCCNCc2cccc(-c3cccc(F)c3)c2)[C@@H](O)[C@H]1O [Compound 10c] | 49 |
| Nc1ncnc2c1ncn2[C@@H]1O[C@H](CSCCNCc2cccc(-c3ccc(C(F)(F)F)cc3)c2)[C@@H](O)[C@H]1O [Compound 10e] | 57 |
| Nc1ncnc2c1ncn2[C@@H]1O[C@H](CSCCNCc2cccc(-c3ccc(F)c(O)c3)c2)[C@@H](O)[C@H]1O [Compound 10f] | 54 |

Target: T2, PRMT1 (Homo sapiens, UniProt Q99873)
T2 construct: made in house
T2 sequence (Q99873 whole entry, species assumed): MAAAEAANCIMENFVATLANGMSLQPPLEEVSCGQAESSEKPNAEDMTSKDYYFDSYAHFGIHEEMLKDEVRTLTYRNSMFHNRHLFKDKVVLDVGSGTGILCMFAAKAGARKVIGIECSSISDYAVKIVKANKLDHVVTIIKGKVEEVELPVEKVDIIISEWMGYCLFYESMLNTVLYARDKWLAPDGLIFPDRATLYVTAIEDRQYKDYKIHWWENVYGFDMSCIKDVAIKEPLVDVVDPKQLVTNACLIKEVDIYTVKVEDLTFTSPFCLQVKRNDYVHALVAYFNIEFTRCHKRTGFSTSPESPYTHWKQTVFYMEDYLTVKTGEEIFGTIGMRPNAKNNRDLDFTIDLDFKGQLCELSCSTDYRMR
Test: SAHH-coupled fluorescence assay, inhibition of PRMT1
Assay type: biochemical
Procedure: as §1
(§5) The PRMT1 methylation assay was performed under the following conditions in a final well volume of 100 μL: 2.5 mM HEPES (pH=7.0), 25 mM NaCl, 25 μM EDTA, 50 μM TCEP, 0.01% Triton X-100, 5 μM SAHH, 0.1 μM PRMT1, 10 μM AdoMet, and 10 μM ThioGlo4. […] The fluorescence signal was monitored on a BMG CLARIOstar microplate reader with excitation at 400 nm and emission at 465 nm for 15 min. Data were processed using GraphPad Prism software 8.0.
as §3
as §5, with “A fluorescence-based SAHH-coupled assay was applied to determine the inhibition activity of all synthesized compounds on PRMT 1 and 3. The PRMT1” for “The PRMT1”, “software 8.0. All experiments were performed in duplicate.” for “software 8.0.”

| SMILES | inhibition at 10 µM [%] |
| --- | --- |
| Nc1cccc(-c2ccc(CNC(=O)NCCSC[C@H]3O[C@@H](n4cnc5c(N)ncnc54)[C@H](O)[C@@H]3O)cc2)c1 [Compound 8b] | 7 |
| Nc1ncnc2c1ncn2[C@@H]1O[C@H](CSCCNC(=O)NCc2ccc(-c3ccc(O)cc3)cc2)[C@@H](O)[C@H]1O [Compound 8c] | 21 |
| Nc1ncnc2c1ncn2[C@@H]1O[C@H](CSCCNC(=O)NCc2ccc(-c3cccc(O)c3)cc2)[C@@H](O)[C@H]1O [Compound 8d] | 22 |
| Nc1ncnc2c1ncn2[C@@H]1O[C@H](CSCCNC(=O)NCc2ccc(-c3ccccc3O)cc2)[C@@H](O)[C@H]1O [Compound 8e] | 11 |
| Nc1ncnc2c1ncn2[C@@H]1O[C@H](CSCCNC(=O)NCc2ccc(-c3cc[nH]n3)cc2)[C@@H](O)[C@H]1O [Compound 8f] | 27 |
| Nc1ncnc2c1ncn2[C@@H]1O[C@H](CSCCNC(=O)NCc2ccc(-c3cn[nH]c3)cc2)[C@@H](O)[C@H]1O [Compound 8g] | 2 |
| Nc1ncnc2c1ncn2[C@@H]1O[C@H](CSCCNCc2cccc(-c3ccc(Cl)cc3)c2)[C@@H](O)[C@H]1O [Compound 10a] | 16 |
| Nc1ncnc2c1ncn2[C@@H]1O[C@H](CSCCNCc2cccc(-c3ccc(O)cc3)c2)[C@@H](O)[C@H]1O [Compound 10b] | 19 |
| Nc1ncnc2c1ncn2[C@@H]1O[C@H](CSCCNCc2cccc(-c3cccc(F)c3)c2)[C@@H](O)[C@H]1O [Compound 10c] | 11 |
| Nc1ncnc2c1ncn2[C@@H]1O[C@H](CSCCNCc2cccc(-c3ccc(C(F)(F)F)cc3)c2)[C@@H](O)[C@H]1O [Compound 10e] | 2 |
| Nc1ncnc2c1ncn2[C@@H]1O[C@H](CSCCNCc2cccc(-c3ccc(F)c(O)c3)c2)[C@@H](O)[C@H]1O [Compound 10f] | 7 |

Target: PRMT8 (Homo sapiens, UniProt Q9NR22)
Sequence (Q9NR22 whole entry, species assumed): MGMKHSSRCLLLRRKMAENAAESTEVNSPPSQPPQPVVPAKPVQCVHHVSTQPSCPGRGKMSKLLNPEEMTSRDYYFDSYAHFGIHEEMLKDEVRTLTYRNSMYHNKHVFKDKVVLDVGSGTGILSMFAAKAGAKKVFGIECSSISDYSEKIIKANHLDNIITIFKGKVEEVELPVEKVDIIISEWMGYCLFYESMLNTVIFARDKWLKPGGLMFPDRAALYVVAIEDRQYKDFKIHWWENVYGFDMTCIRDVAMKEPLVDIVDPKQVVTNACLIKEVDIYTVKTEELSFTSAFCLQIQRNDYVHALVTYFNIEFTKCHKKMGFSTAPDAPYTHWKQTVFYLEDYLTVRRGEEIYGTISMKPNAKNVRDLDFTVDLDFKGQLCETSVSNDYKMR
Test: radioactive assay (Reaction Biology Corp.), inhibition of PRMT8
Assay type: biochemical
Procedure: as §3, §4

| SMILES | inhibition at 10 µM [%] |
| --- | --- |
| Nc1cccc(-c2ccc(CNC(=O)NCCSC[C@H]3O[C@@H](n4cnc5c(N)ncnc54)[C@H](O)[C@@H]3O)cc2)c1 [Compound 8b] | 0 |
| Nc1ncnc2c1ncn2[C@@H]1O[C@H](CSCCNC(=O)NCc2ccc(-c3ccc(O)cc3)cc2)[C@@H](O)[C@H]1O [Compound 8c] | 3 |
| Nc1ncnc2c1ncn2[C@@H]1O[C@H](CSCCNC(=O)NCc2ccc(-c3cccc(O)c3)cc2)[C@@H](O)[C@H]1O [Compound 8d] | 15 |
| Nc1ncnc2c1ncn2[C@@H]1O[C@H](CSCCNC(=O)NCc2ccc(-c3ccccc3O)cc2)[C@@H](O)[C@H]1O [Compound 8e] | -2 |
| Nc1ncnc2c1ncn2[C@@H]1O[C@H](CSCCNC(=O)NCc2ccc(-c3cc[nH]n3)cc2)[C@@H](O)[C@H]1O [Compound 8f] | 2 |
| Nc1ncnc2c1ncn2[C@@H]1O[C@H](CSCCNC(=O)NCc2ccc(-c3cn[nH]c3)cc2)[C@@H](O)[C@H]1O [Compound 8g] | 5 |
| Nc1ncnc2c1ncn2[C@@H]1O[C@H](CSCCNCc2cccc(-c3ccc(Cl)cc3)c2)[C@@H](O)[C@H]1O [Compound 10a] | 71 |
| Nc1ncnc2c1ncn2[C@@H]1O[C@H](CSCCNCc2cccc(-c3ccc(O)cc3)c2)[C@@H](O)[C@H]1O [Compound 10b] | 67 |
| Nc1ncnc2c1ncn2[C@@H]1O[C@H](CSCCNCc2cccc(-c3cccc(F)c3)c2)[C@@H](O)[C@H]1O [Compound 10c] | 68 |
| Nc1ncnc2c1ncn2[C@@H]1O[C@H](CSCCNCc2cccc(-c3ccc(C(F)(F)F)cc3)c2)[C@@H](O)[C@H]1O [Compound 10e] | 67 |
| Nc1ncnc2c1ncn2[C@@H]1O[C@H](CSCCNCc2cccc(-c3ccc(F)c(O)c3)c2)[C@@H](O)[C@H]1O [Compound 10f] | 80 |
